Measured values: patent US7598234B2, “Steroid derived antibiotics” (Brigham Young University, priority 1998, dated 2009)
≈ marks a conversion by molar mass, not a printed value.

Experiments:
[1] = tested on: Staphylococcus aureus ATCC 25923; assay: MIC and MBC measurement with Staphylococcus aureus ATCC 25923; type: cell-based; details: Table 10; Staphylococcus aureus ATCC 25923
Description: (§1) General: Microorganisms. Reference strains were purchased from the American Type Culture Collection (Rockville, Md.) or Bactrol disks from Difeo Laboratories (Detroit, Mich.). The following specific ATCC strains were used: 10798 Escherichia coli, 25922 Escherichia coli, 13883 Klebsiella pneumoniae, 27853 Pseudomonas aeruginosa, 14028 Salmonella typhimurium, 29212 Enterococcus faecalis, 25923 Staphylococcus aureus, 19615 Streptococcus pyogenes, and 90028 Candida albicans. Bacterial strains were maintained on Mueller-Hinton agar plates, and Candida albicans was maintained on Sabouraud Dextrose agar plates.
(§2) Tryptic soy broth (TSB) was made by dissolving 27.5 grams of tryptic soy broth without dextrose (DIFCO Laboratories) in 1 liter of deionized water and sterilizing at 121° C. for 15 minutes. Solid agar (TSA) plates were made by dissolving 6.4 grams of tryptic soy broth and 12 grams of agar (purified grade, Fischer Scientific) in 800 mL of deionized water and sterilizing at 121° C. for 20 minutes. Aliquots (20 mL) of the homogeneous solution were then poured in sterile plastic petri dishes (100×15 mm, Fisher Scientific). Solutions of compounds were made by dissolving the HCl salt of the respective compound into an appropriate amount of deionized and sterilized water followed by microfiltration.
(§3) Aliquots of 1 mL of the suspension were added to test tubes containing 1 mL TSB and incrementally varied concentrations of cholic acid derivatives and/or erythromycin or novobiocin. In the sensitization experiments, erythromycin or novobiocin were added 15 minutes later than the cholic acid derivatives. The samples were subjected to stationary incubation at 37° C. for 24 hours. Sample turbidity was determined by measuring absorption at 760 nm (HP 8453 UV-Visible Chemstation, Hewlett Packard). Additionally, an alliquot from each of the samples showing no measurable turbidity was subcultured on TSA plates (alliquots were diluted to provide fewer than 300 CFU). Colonies that grew on the subculture after overnight incubation were counted and the number of CFU/mL in the samples were calculated. The calculated values were compared to the number of CFU/mL in the original inoculum. […]

[2] = tested on: Pseudomonas aeruginosa (ATCC 27853); assay: Sensitization to erythromycin, Pseudomonas aeruginosa (ATCC 27853); type: cell-based; details: for FIC / concentration required to inhibit bacterial growth with antibiotic: Table 11, Pseudomonas aeruginosa ATCC 27853; for FIC: erythromycin (by order); for concentration required to inhibit bacterial growth with antibiotic: erythromycin (by order) at 0.5, 1.0 or 3.0 μg/mL
Method: (§4) Alternatively, “fractional inhibitory concentration (FIC)” is also useful for determination of synergy between the compounds of the invention, or the compounds in combination with known antibiotics. FICs can be performed by checkerboard titrations of compounds in one dimension of a microtiter plate, and of antibiotics in the other dimension, for example. The FIC is calculated by looking at the impact of one antibiotic on the MIC of the other and vice versa. […] Preferably, an FIC of less than 0.5 is obtained for synergism. As used herein, FIC can be determined as follows:
as §3
(§5) To measure permeabilization, the FIC values for compounds 1, 2, 5, 106, 10, 112, 133, and 134 with erythromycin, novobiocin, and rifampicin were determined. Concentrations of 0.5, 1.0 or 3.0 μg/mL of these antibiotics were used, and the concentrations of the cholic acid derivatives required to inhibit bacterial growth of Gram-negative strains were determined.

E. coli (ATCC 25922) [3] = assay: Sensitization to erythromycin, E. coli (ATCC 25922); type: cell-based, Escherichia coli; details: for FIC / concentration required to inhibit bacterial growth with antibiotic: Table 11, Escherichia coli ATCC 25922; for FIC: erythromycin (by order); for concentration required to inhibit bacterial growth with antibiotic: erythromycin (by order) at 0.5, 1.0 or 3.0 μg/mL
Method: FICs can be performed by checkerboard titrations of compounds in one dimension of a microtiter plate, and of antibiotics in the other dimension, for example. The FIC is calculated by looking at the impact of one antibiotic on the MIC of the other and vice versa. […] Preferably, an FIC of less than 0.5 is obtained for synergism. As used herein, FIC can be determined as follows:
(§6) Aliquots of 1 mL of the suspension were added to test tubes containing 1 mL TSB and incrementally varied concentrations of cholic acid derivatives and/or erythromycin or novobiocin. In the sensitization experiments, erythromycin or novobiocin were added 15 minutes later than the cholic acid derivatives. The samples were subjected to stationary incubation at 37° C. for 24 hours. Sample turbidity was determined by measuring absorption at 760 nm (HP 8453 UV-Visible Chemstation, Hewlett Packard). Additionally, an alliquot from each of the samples showing no measurable turbidity was subcultured on TSA plates (alliquots were diluted to provide fewer than 300 CFU). Colonies that grew on the subculture after overnight incubation were counted and the number of CFU/mL in the samples were calculated. The calculated values were compared to the number of CFU/mL in the original inoculum.
Concentrations of 0.5, 1.0 or 3.0 μg/mL of these antibiotics were used, and the concentrations of the cholic acid derivatives required to inhibit bacterial growth of Gram-negative strains were determined.
(§7) Minimum inhibition concentrations (MIC) and minimum hemolytic concentrations (MHC) were measured as described in Li et al., Antimicrob. Agents. Chemother., 1999, 43, 1347.

[4] = tested on: Salmonella typhimurium ATCC 14028; assay: MIC and MBC measurement with Salmonella typhimurium ATCC 14028; type: cell-based; details: Table 10
Description: as §1, §2, §6

[5] = tested on: Candida albicans ATCC 90028; assay: MIC and MBC measurement with Candida albicans ATCC 90028; type: cell-based; details: Table 10
Description: as §1, §2, §6

[6] = tested on: Pseudomonas aeruginosa (ATCC 27853); assay: MIC and MBC measurement with Pseudomonas aeruginosa (ATCC 27853); type: cell-based
Description: as §1, §2, §6

[7] = Method: as §7
E. coli (ATCC 25922) [8] = assay: MIC and MBC measurement with E. coli (ATCC 25922); type: cell-based, Escherichia coli
Description: as §1, §2, §3

[9] = tested on: Pseudomonas aeruginosa (ATCC 27853); assay: Sensitization to novobiocin, Pseudomonas aeruginosa (ATCC 27853); type: cell-based; details: Table 8; P. aureginosa (ATCC 27853)
Method: as §4, §3, §5

[10] = tested on: Streptococcus pyrogenes ATCC 19615; assay: MIC and MBC measurement with Streptococcus pyogenes ATCC 19615; type: cell-based; details: Table 10
Description: as §1, §2, §6

E. coli (ATCC 10798) [11] = assay: MIC and MBC measurement with E. coli (ATCC 10798); type: cell-based, Escherichia coli
Description: as §1, §2, §6

[12] = tested on: Enterococcus faecalis ATCC 29212; assay: MIC and MBC measurement with Enterococcus faecalis ATCC 29212; type: cell-based; details: Table 10
Description: as §1, §2, §6

[13] = tested on: Klebsiella pneumonia ATCC 13883; assay: MIC and MBC measurement with Klebsiella pneumoniae ATCC 13883; type: cell-based; details: Table 10
Description: as §1, §2, §6

E. coli (ATCC 10798) [14] = assay: Sensitization to novobiocin (concentration lowering the MIC of novobiocin), E. coli (ATCC 10798); type: cell-based, Escherichia coli; details: Table 3, E. coli (ATCC 10798)
Method: as §4, §6
(§8) Ability to permeabilize outer membrane: Compounds 11, 106, and 108-114 (FIG. 1) were tested for antibiotic activity. They were also tested for the ability to permeabilize the outer membrane of Gram-negative bacteria, causing sensitization to hydrophobic antibiotics that cannot cross the outer membrane. The permeabilization of the outer membrane was measured using erythromycin and novobiocin.
(§9) The MICs of erythromycin and novobiocin against E. coli (ATCC 10798) at 70 and >500 μg/mL were measured.

E. coli (ATCC 10798) [15] = assay: Sensitization to erythromycin (concentration lowering the MIC of erythromycin), E. coli (ATCC 10798); type: cell-based, Escherichia coli; details: Table 2, E. coli (ATCC 10798)
Method: as §4, §6, §8, §9

[16] = Table 6, P. aureginosa (ATCC 27853)
[17] = Table 10, Pseudomonas aeruginosa ATCC 27853
[18] = Table 10, Escherichia coli ATCC 25922

Row | SMILES | MBC [1] | MIC [1] | FIC [2] | concentration required to inhibit bacterial growth with antibiotic [2] | FIC (E. coli (ATCC 25922) [3]) | concentration required to inhibit bacterial growth with antibiotic (E. coli (ATCC 25922) [3]) | MBC [4] | MIC [4] | MBC [5] | MIC [5] | MBC [6, 17] | MIC [6, 17] | MHC [7] | MBC (E. coli (ATCC 25922) [8]; [18]) | MIC (E. coli (ATCC 25922) [8]; [18]) | MBC [10] | MIC [10] | MBC [12] | MIC [12] | MBC [13] | further results
1 | C[C@H](CCCN(C)Cc1ccccc1)[C@H]1CC[C@H]2[C@@H]3[C@H](OCCCNC(=N)N)C[C@@H]4C[C@H](OCCCNC(=N)N)CC[C@]4(C)[C@H]3C[C@H](OCCCNC(=N)N)[C@]12C [Compound 5] | 3.2 µg/mL (≈ 4.02 µM) | 0.6 µg/mL (≈ 0.755 µM) | 0.42 | 2.3 µg/mL | 0.31 | 0.38 µg/mL | 3.8 µg/mL (≈ 4.78 µM) | 2.2 µg/mL (≈ 2.77 µM) | 50 µg/mL (≈ 62.9 µM) | 11 µg/mL (≈ 13.8 µM) | 9.9 µg/mL (≈ 12.5 µM) | 5.9 µg/mL (≈ 7.42 µM) | 26 µg/mL | 3.8 µg/mL (≈ 4.78 µM) | 1.4 µg/mL (≈ 1.76 µM) | 2.1 µg/mL (≈ 2.64 µM) | 2.0 µg/mL (≈ 2.52 µM) | 16 µg/mL (≈ 20.1 µM) | 2.2 µg/mL (≈ 2.77 µM) | 6.7 µg/mL (≈ 8.43 µM) | MIC: concentration required to lower the MIC of erythromycin from 240 μg/mL to 5 μg/mL ([2]; Table 7, P. aureginosa (ATCC 27853)): 3 µg/mL; MBC (with erythromycin) ([2]; Table 7, P. aureginosa (ATCC 27853), erythromycin sensitization): 10 µg/mL; MIC: concentration required to lower the MIC of erythromycin from 60 μg/mL to 1 μg/mL (E. coli (ATCC 25922) [3]; Table 5, E. coli (ATCC 25922)): 1.5 µg/mL; MBC (with erythromycin) (E. coli (ATCC 25922) [3]; Table 5, E. coli (ATCC 25922), erythromycin sensitization): 1.5 µg/mL; MBC [6, 16]: 15 µg/mL (≈ 18.9 µM); MIC [6, 16]: 6 µg/mL (≈ 7.55 µM); MBC (E. coli (ATCC 25922) [8]; Table 4, E. coli (ATCC 25922)): 4 µg/mL (≈ 5.03 µM); MIC (E. coli (ATCC 25922) [8]; Table 4, E. coli (ATCC 25922)): 2 µg/mL (≈ 2.52 µM); MIC: concentration required to lower the MIC of novobiocin from >500 μg/mL to 1 μg/mL [9]: 6 µg/mL; MBC (E. coli (ATCC 10798) [11]; Table 1, E. coli (ATCC 10798)): 4 µg/mL (≈ 5.03 µM); MIC (E. coli (ATCC 10798) [11]; Table 1, E. coli (ATCC 10798)): 2 µg/mL (≈ 2.52 µM); MIC [13]: 3.0 µg/mL (≈ 3.77 µM); MIC: concentration required to lower the MIC of novobiocin from >500 μg/mL to 1 μg/mL (E. coli (ATCC 10798) [14]): 2 µg/mL; MBC (with novobiocin) (E. coli (ATCC 10798) [14]; novobiocin sensitization): 4 µg/mL; MIC: concentration required to lower the MIC of erythromycin from 70 μg/mL to 1 μg/mL (E. coli (ATCC 10798) [15]): 1 µg/mL; MBC (with erythromycin) (E. coli (ATCC 10798) [15]; erythromycin sensitization): 3 µg/mL
2 | CCCCCCCCNCCC[C@@H](C)[C@H]1CC[C@H]2[C@@H]3[C@H](OCCCNC(=N)N)C[C@@H]4C[C@H](OCCCNC(=N)N)CC[C@]4(C)[C@H]3C[C@H](OCCCNC(=N)N)[C@]12C [Compound 134] | 1.4 µg/mL (≈ 1.74 µM) | 0.59 µg/mL (≈ 0.735 µM) | 0.42 | 0.70 µg/mL | 0.36 | 0.37 µg/mL | 1.8 µg/mL (≈ 2.24 µM) | 0.81 µg/mL (≈ 1.01 µM) | 76 µg/mL (≈ 94.6 µM) | 53 µg/mL (≈ 66 µM) | 2.9 µg/mL (≈ 3.61 µM) | 2.0 µg/mL (≈ 2.49 µM) | 9.0 µg/mL | 0.37 µg/mL (≈ 0.461 µM) | 0.31 µg/mL (≈ 0.386 µM) | 3.5 µg/mL (≈ 4.36 µM) | 3.5 µg/mL (≈ 4.36 µM) | 5.8 µg/mL (≈ 7.22 µM) | 3.0 µg/mL (≈ 3.73 µM) | 3.0 µg/mL (≈ 3.73 µM) | MIC (in words) (E. coli (ATCC 10798) [11]; FIG. 5, strain not named): very low; MIC [13]: 0.84 µg/mL (≈ 1.05 µM)
